Broadly, the inhibition is the percentage by which the read-out fell short of the control.

From patent publication US8916599B2, “1H-benz imidazole-5-carboxamides as anti-inflammatory agents” (Orexo AB, priority 2008, dated 2014) come the findings set out here.

One test deals with T1, recombinant human mPGES-1 (Homo sapiens, UniProt O14684).
T1 construct: made in house; host or cells: Rosetta E. coli (microsomal/membrane fraction)
T1 sequence (O14684 1-152): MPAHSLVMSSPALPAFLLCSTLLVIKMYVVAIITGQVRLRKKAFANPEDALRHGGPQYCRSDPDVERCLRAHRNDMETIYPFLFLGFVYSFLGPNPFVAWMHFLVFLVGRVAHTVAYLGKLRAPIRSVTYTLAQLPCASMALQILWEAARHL
Put plainly: mPGES-1 inhibition test (microsomes, PGH2 substrate, HTRF detection of PGE2). Format: biochemical. As to conditions: inhibition of mPGES-1 at 1 μM (marked in cell). How it is done:
Microsomes from Rosetta E. coli bacteria expressing recombinant human mPGES-1 is dissolved in 0.1 M KPi pH 7.4 buffer containing 2.5 mM GSH. 50 μl of the enzyme is subsequently dispensed in a 384-well plate. 0.5 μl of the inhibitor dissolved in DMSO at is thereafter added to each well and incubated for 25 minutes at room temperature. Subsequently, 2 μl of PGH2 dissolved in an appropriate solvent is added to each well and after one minute the acidified stop solution containing FeCl2 is added. 4 μl of the total volume is transferred to a separate plate and diluted 750-fold in two separate steps before HTRF detection of PGE2.
The HTRf detection is performed by the use of a commercially available kit from CisBio essentially according to the manufacturer's protocol. Briefly, 10 μl of the diluted sample is transferred to a white 384-well plate. 5 μl of d2 and 5 μl Eu3+-Cryptate labeled anti-PGE2 is added to each well containing samples by the use of a Multidrop. The plate is covered with a plastic self-adhesive film, centrifuged at 1200 rpm for 1 minute and subsequently stored at +4° C. over night.
After over night incubation the fluorescence is measured by the use of an appropriate microplate reader. The fluorescence of europium cryptate, and d2 are measured using the following excitation and emission wavelength, europium cryptate: λmax^ex=307 nm, λmax^em=620 nm and d2: λmax^ex=620 nm, λmax^em=665 nm), respectively. The extent of the specific FRET is measured as a ratio of the emission intensity at 665 nm vs. that at 620 nm. A standard curve using synthetic PGE2 is used to quantify the amount of PGE2 in unknown samples.
On the technique in general: TR-FRET usually uses a lanthanide donor and a delayed reading to cut background.
As to `CC(C)Oc1cc2c(cc1C(=O)NC1CCC(C(F)(F)F)CC1)nc(Nc1c(Cl)ccc(Cl)c1F)n2C` (stereo not drawn) [Example 644, 2-(3,6-Dichloro-2-fluoro-phenylamino)-6-isopropoxy-N-(4-trans-trifluoromethyl-cyclohex-1-yl)-1-methyl-1H-benzimidazole-5-carboxamide], the inhibition at 1 µM was found to be 96%. Take `Cc1ccc(Cl)c(Nc2nc3cc(C(=O)NC4CCCCC4)c(F)cc3[nH]2)c1F` [Example 649, 2-(6-Chloro-2-fluoro-3-methyl-phenylamino)-N-cyclohexyl-6-fluoro-1H-benzimidazole-5-carboxamide]: the inhibition at 1 µM worked out at 96%. Turning to `COc1cc2c(cc1C(=O)NC1CCC(C)(C)CC1)nc(Nc1c(Cl)ccc(C)c1F)n2C` [Example 650, 2-(6-Chloro-2-fluoro-3-methyl-phenylamino)-6-methoxy-N-(4,4-dimethyl-cyclohex-1-yl)-1-methyl-1H-benzimidazole-5-carboxamide], the inhibition at 1 µM worked out at 100%. Still for that read-out and setting: to `Cc1ccc(Cl)c(Nc2nc3cc(C(=O)NC4CCC(C)(C)CC4)c(F)cc3n2C)c1F` [Example 627, 2-(6-Chloro-2-fluoro-3-methyl-phenylamino)-6-fluoro-N-(4,4-dimethyl-cyclohex-1-yl)-1-methyl-1H-benzimidazole-5-carboxamide] belongs 94%.

The test is the same for the next values; noted with them: inhibition of mPGES-1 at 10 μM.
On to `COc1ccnc(CNC(=O)c2cc3nc(Nc4c(Cl)cccc4Cl)n(C)c3cc2F)c1` [Example 569, 2-(2,6-Dichlorophenylamino)-6-fluoro-N-((4-methoxypyridin-2-yl)methyl)-1-methyl-1H-benzimidazole-5-carboxamide], for which the inhibition at 10 µM was 81%. On the same count and under the same terms, to `Cc1ccc(NC(=O)c2ccc3c(c2)nc(Nc2c(Cl)cccc2Cl)n3C)nc1` [Example 327, 2-(2,6-Dichloro-phenylamino)-1-methyl-1H-benzimidazole-5-carboxylic acid (5-methyl-pyridin-2-yl)-amide] belongs 100%.

Regarding `O=C(Nc1ccc(Br)cc1)c1cc2nc(Nc3c(F)ccc(F)c3Cl)[nH]c2cc1OCC(F)(F)F` [Example 595, 2-(2-Chloro-3,6-difluoro-phenylamino)-N-(4-bromophenyl)-6-(2,2,2-trifluorethoxy)-1H-benzimidazole-5-carboxamide], the inhibition at 10 µM was 100%. Same read-out and setting: to `Cc1ccccc1Nc1nc2cc(C(=O)Nc3ccccc3)ccc2[nH]1` [Example 10, 2-(o-Tolyl-amino)-1H-benzimidazole-5-carboxylic acid-phenylamide] belongs 98%. As to “N-(4-Bromophenyl)-1-methyl-2-(2-(4-morpholino)phenylamino)-1H-benzimidazole-5-carboxamide [Example 555]”, the “% inhib.” value was determined as 70%. As for `CCn1c(Nc2c(Cl)cccc2Cl)nc2cc(C(=O)Nc3cc(Cl)ccn3)ccc21` [Example 277, 2-(2,6-Dichloro-phenylamino)-1-ethyl-1H-benzimidazole-5-carboxylic acid (4-chloro-pyridin-2-yl)-amide], the inhibition at 10 µM turned out to be 99%.

On to `O=C(Nc1cc(Cl)ccn1)c1ccc2c(c1)nc(Nc1c(Cl)cccc1Cl)n2CC(=O)N1CCOCC1` [Example 275, 2-(2,6-Dichloro-phenylamino)-1-(2-morpholin-4-yl-2-oxo-ethyl)-1H-benzimidazole-5-carboxylic acid (4-chloro-pyridin-2-yl)-amide], for which the inhibition at 10 µM was 96%. Still for that read-out and setting: to `CCOc1cc2c(cc1C(=O)NC1CCC(C)(C)CC1)nc(Nc1c(Cl)ccc(Cl)c1F)n2C` [Example 607, 2-(3,6-Dichloro-2-fluoro-phenylamino)-6-ethoxy-N-(4,4-dimethyl-cyclohex-1-yl)-1-methyl-1H-benzimidazole-5-carboxamide] belongs 97%; to `CCCCCCNC(=O)c1cc2nc(Nc3c(Cl)cccc3Cl)n(C)c2cc1F` [Example 373, 2-(2,6-Dichlorophenylamino)-6-fluoro-N-hexyl-1-methyl-1H-benzimidazole-5-carboxamide], 100%; to `Cc1cccnc1NC(=O)c1ccc2c(c1)nc(Nc1c(Cl)cccc1Cl)n2C` [Example 341, 2-(2,6-Dichloro-phenylamino)-1-methyl-1-H-benzimidazole-5-carboxylic acid (3-methyl-pyridin-2-yl)-amide], 92%. On the same count and under the same terms, to `CN(C)c1cccnc1CNC(=O)c1cc2nc(Nc3c(Cl)cccc3Cl)n(C)c2cc1F` [Example 474, 2-(2,6-Dichlorophenylamino)-N-((3-dimethylamino-pyridin-2-yl)-methyl)-6-fluoro-1-methyl-1H-benzimidazole-5-carboxamide] belongs 100%; to `O=C(NC1CCC(C(F)(F)F)CC1)c1cc2nc(Nc3c(F)ccc(Cl)c3Cl)[nH]c2cc1OCC(F)(F)F` (stereo not drawn) [Example 591, 2-(2,3-Dichloro-6-fluoro-phenylamino)-6-(2,2,2-trifluoro-ethoxy)-N-(4-trans-trifluoromethyl-cyclohex-1-yl) 1H-benzimidazole-5-carboxamide], 99%. The same measure, in the same setting: in the case of `COc1cc2c(cc1C(=O)NC1CCC(C)(C)CC1)nc(Nc1c(Cl)ccc(Cl)c1F)n2C` [Example 621, 2-(3,6-Dichloro-2-fluoro-phenylamino)-6-methoxy-N-(4,4-dimethyl-cyclohex-1-yl)-1-methyl-1H-benzimidazole-5-carboxamide] it was 99%; in that of `O=C(Nc1cccc(Cl)c1)c1cc2nc(Nc3c(Cl)cccc3Cl)[nH]c2cc1Cl` [Example 56, 2-(2,6-Dichloro-phenylamino)-6-chloro-1H-benzimidazol-5-carboxylic acid (3-chloro-phenyl)-amide], 100%. For `C#Cc1ccccc1Nc1nc2cc(C(=O)Nc3ccc(Br)cc3)ccc2n1C` [Example 538, N-(4-Bromophenyl)-2-(2-ethynylphenylamino)-1-methyl-1H-benzimidazole-5-carboxamide], the inhibition at 10 µM amounted to 85%. Still for that read-out and setting: to `O=C(NC1CCCC(O)C1)c1ccc2[nH]c(Nc3c(Cl)cccc3Cl)nc2c1` (stereo not shown) [Example 226, 2-(2,6-Dichloro-phenylamino)-1H-benzimidazole-5-carboxylic acid (3-hydroxy-cyclohexyl)-amide] belongs 64%. On the same count and under the same terms, in the case of `Cn1c(Nc2c(Cl)cccc2Cl)nc2cc(C(=O)N[C@H]3CC[C@H](C(F)(F)F)CC3)c(F)cc21` [Example 158, 2-(2,6-Dichloro-phenylamino)-6-fluoro-1-methyl-1H-benzimidazole-5-carboxylic acid (trans-4-trifluoromethyl-cyclohexyl)-amide] it was 100%. On the same count and under the same terms, in the case of `CN(C)c1cc(C(F)(F)F)cc(NC(=O)c2cc3nc(Nc4c(Cl)cc(F)cc4Cl)[nH]c3cc2OCC(F)(F)F)n1` [Example 575, 2-(2,6-Dichloro-4-fluoro-phenylamino)-N-(6-dimethylamino-4-trifluoromethyl-pyridin-2-yl)-6-(2,2,2-trifluorethoxy)-1H-benzimidazole-5-carboxamide] it was 82%. Regarding `Cn1c(Nc2c(F)cccc2Cl)nc2cc(C(=O)NC3CCCC(C)(C)C3)c(F)cc21` (stereo not shown) [Example 404, 2-(2-Chloro-6-fluorophenylamino)-N-(3,3-dimethylcyclohexyl)-6-fluoro-1-methyl-1H-benzimidazole-5-carboxamide], the inhibition at 10 µM came to 100%.

As for `O=C(Nc1ncccc1C(F)(F)F)c1ccc2[nH]c(Nc3c(Cl)cccc3Cl)nc2c1` [Example 190, 2-(2,6-Dichloro-phenylamino)-1H-benzimidazole-5-carboxylic acid (3-trifluoromethyl-pyridin-2-yl)-amide], the inhibition at 10 µM came to 75%. On the same count and under the same terms, to `Cc1cnc(NC(=O)c2cc3nc(Nc4c(Cl)cccc4Cl)n(C)c3cc2F)cc1C` [Example 421, 2-(2,6-Dichlorophenylamino)-N-(4,5-dimethylpyridin-2-yl)-6-fluoro-1-methyl-1H-benzimidazole-5-carboxamide] belongs 99%; to `Cn1c(Nc2c(Cl)cccc2Cl)nc2cc(C(=O)NC3CCCCC3O)ccc21` (stereo not shown) [Example 237, 2-(2,6-Dichloro-phenylamino)-1-methyl-1H-benzimidazole-5-carboxylic acid (2-hydroxy-cyclohexyl)-amide], 87%. The same measure, in the same setting: to `Cn1c(Nc2c(Cl)cccc2Cl)nc2cc(C(=O)Nc3cc(Cl)ccn3)ccc21` [Example 210, 2-(2,6-Dichloro-phenylamino)-1-methyl-1H-benzimidazole-5-carboxylic acid (4-chloro-pyridin-2-yl)-amide] belongs 100%; to `Cn1c(Nc2c(F)cccc2F)nc2cc(C(=O)N[C@H]3CC[C@H](C(F)(F)F)CC3)ccc21` [Example 171, 2-(2,6-Difluoro-phenylamino)-1-methyl-1H-benzimidazole-5-carboxylic acid (trans-4-trifluoromethyl-cyclohexyl)-amide], 94%.
